# Columns and labels:
# Stability in plasma = assay: Stability in plasma
# Method: (§1) Nicotinic acid, nicotinamide and nicotinuric acid are stable in plasma when frozen (at −20±5° C.) for 64 days and after 3 freeze/thaw cycles. When kept at room temperature, nicotinic acid in plasma becomes unstable after 24 hours.
# [1] = Method: as §1
# Remark: listed apart in the source
# [2] = system: NAD and NADP in whole blood; conditions: individuals undergoing niacin therapy; average pretherapy value 175; cited from earlier work
# [3] = Long term storage in tubes (glass vs polypropylene); assay type: in vitro ADME
# Description: Most preferred are Vacutainer tubes containing lithium-heparin as an anticoagulant.
time after which unstable in plasma at room temperature (Stability in plasma; 24 hours) [h],time stable in plasma when frozen (Stability in plasma; 64 days) [days],stability in plasma after freeze/thaw cycles (Stability in plasma; plasma),time stable in serum when refrigerated (refrigerated) [days],time stable in serum at room temperature (room temperature) [days],change in concentration on long term storage in polypropylene tubes [3],Structure (SMILES),stability in fresh whole blood [1],average niacin number after niacin supplements [2],"stability in plasma after freeze/thaw cycles (Stability in plasma; plasma, after 3 freeze/thaw cycles)","time stable in plasma when frozen (Stability in plasma; plasma, frozen at −20±5° C.) [days]"
24,64,stable,15,15,–,"O=C(O)c1cccnc1 [nicotinic acid, pyridine 3-carboxylic acid]",neither nicotinic acid nor the active metabolites were stable,665,–,–
–,–,–,–,–,–,O=C(O)CNC(=O)c1cccnc1 [nicotinuric acid],–,–,stable,64
–,64,stable,–,–,significant changes in the concentration,NC(=O)c1cccnc1 [nicotinamide],–,–,–,–

# From US20130037709A1, “Method for Clinically Monitoring Niacin and Niacin Metabolites in Serum or Plasma” (priority 2010, published 2013)
